Like-named read-outs stand apart in the source and are kept apart here.
Key:
[1] = biological target: T1, pY705-STAT3 in PBMC (Homo sapiens, UniProt P40763); assay: MSD-pSTAT-PBMC Assay (pSTAT3, IL-6 stimulated); format: cell-based; conditions: compound 3 hrs, then 10 ng/mL IL-6 for 10 min, Table 115
T1 construct: Cryopreserved Peripheral Blood Mononuclear Cells (PBMC) are from AllCells; host or cells: cryopreserved PBMC
In short: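 Human PBMCs were pretreated with compound for 3 h, then stimulated with 10 ng/mL IL-6 for 10 min. Lysate pY705-STAT3 was measured by MSD sandwich immunoassay (anti-STAT3 capture) and corrected for unstimulated background. Signal was normalized to DMSO, and IC50 came from variable-slope regression.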

[2] = biological target: T2, pY641-STAT6 in PBMC (Homo sapiens, UniProt P42226); assay: MSD-pSTAT-PBMC Assay (pSTAT6, IL-4 stimulated); format: cell-based; conditions: compound 3 hrs, then 1 ng/mL IL-4 for 10 min, Table 115
T2 construct: Cryopreserved Peripheral Blood Mononuclear Cells (PBMC) are from AllCells; host or cells: cryopreserved PBMC
T2 sequence (P42226 1-847): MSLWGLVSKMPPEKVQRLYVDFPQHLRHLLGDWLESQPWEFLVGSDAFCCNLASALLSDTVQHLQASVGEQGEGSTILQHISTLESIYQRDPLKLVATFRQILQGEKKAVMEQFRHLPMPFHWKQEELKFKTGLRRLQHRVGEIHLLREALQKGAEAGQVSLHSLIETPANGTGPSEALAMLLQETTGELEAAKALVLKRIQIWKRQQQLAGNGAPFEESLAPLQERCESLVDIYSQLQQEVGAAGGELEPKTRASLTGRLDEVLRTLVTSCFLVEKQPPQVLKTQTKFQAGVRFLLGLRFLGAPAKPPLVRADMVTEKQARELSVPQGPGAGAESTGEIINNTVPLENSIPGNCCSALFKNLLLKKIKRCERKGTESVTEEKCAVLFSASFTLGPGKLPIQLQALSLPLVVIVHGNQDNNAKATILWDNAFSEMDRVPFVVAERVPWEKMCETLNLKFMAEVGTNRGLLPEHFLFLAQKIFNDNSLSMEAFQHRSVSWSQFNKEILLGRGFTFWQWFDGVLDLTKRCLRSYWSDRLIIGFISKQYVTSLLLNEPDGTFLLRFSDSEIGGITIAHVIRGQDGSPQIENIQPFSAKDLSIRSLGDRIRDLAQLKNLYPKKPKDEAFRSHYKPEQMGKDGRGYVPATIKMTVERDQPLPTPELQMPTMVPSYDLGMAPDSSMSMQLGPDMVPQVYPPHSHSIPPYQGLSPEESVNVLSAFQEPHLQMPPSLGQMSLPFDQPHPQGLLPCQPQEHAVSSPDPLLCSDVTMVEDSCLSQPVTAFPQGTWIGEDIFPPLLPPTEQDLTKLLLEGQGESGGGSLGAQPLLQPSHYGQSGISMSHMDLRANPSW
In short: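 Inhibition of cytokine-induced STAT phosphorylation was measured in recovered human PBMC after 3 hrs compound exposure and a 10 min IL-4 (1 ng/mL) or IL-6 (10 ng/mL) challenge. MSD detection of pY641-STAT6 or pY705-STAT3 yielded IC50 values.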

T1 sequence (P40763 whole entry): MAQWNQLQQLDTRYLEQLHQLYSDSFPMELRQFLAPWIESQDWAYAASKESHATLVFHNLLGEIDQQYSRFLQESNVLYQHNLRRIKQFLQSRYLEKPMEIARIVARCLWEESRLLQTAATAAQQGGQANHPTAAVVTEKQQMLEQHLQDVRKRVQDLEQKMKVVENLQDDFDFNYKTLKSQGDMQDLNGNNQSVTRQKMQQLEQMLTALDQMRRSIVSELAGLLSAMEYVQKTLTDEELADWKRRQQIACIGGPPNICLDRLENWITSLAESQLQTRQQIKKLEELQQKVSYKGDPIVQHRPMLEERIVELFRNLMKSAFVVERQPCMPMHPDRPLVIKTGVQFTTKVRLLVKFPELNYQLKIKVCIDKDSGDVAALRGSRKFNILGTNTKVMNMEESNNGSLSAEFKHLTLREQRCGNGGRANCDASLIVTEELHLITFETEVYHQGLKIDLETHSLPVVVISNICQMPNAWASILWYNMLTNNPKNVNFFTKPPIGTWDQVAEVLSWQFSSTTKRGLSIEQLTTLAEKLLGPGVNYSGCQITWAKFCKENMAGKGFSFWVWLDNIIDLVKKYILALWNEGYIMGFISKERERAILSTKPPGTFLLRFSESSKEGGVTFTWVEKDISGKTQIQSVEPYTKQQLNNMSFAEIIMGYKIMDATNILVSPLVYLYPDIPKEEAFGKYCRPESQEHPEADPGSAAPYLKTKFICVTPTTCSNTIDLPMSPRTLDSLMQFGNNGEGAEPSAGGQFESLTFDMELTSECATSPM

Compound: CCCOC(=O)[C@H](C)NP(=O)(Oc1ccccc1)C(F)c1ccc2sc(C(=O)N[C@H]3CCCC[C@H]4CC[C@@H](C(=O)N5C[C@@H](C#N)[C@H](c6ccccc6)C5)N4C3=O)cc2c1 (single isomer, unassigned) [Compound 315]
- IC50 ([1]; PBMC, read-out: STAT3): > 3000 nM
- IC50 ([2]; STAT6, PBMC): < 100 nM

Compound: CCCOC(=O)[C@H](C)NP(=O)(Oc1ccccc1)C(F)c1ccc2sc(C(=O)N[C@H]3CCCC[C@H]4CC[C@@H](C(=O)N5C[C@@H](c6cccc(OC)c6)[C@H](C#N)C56CC6)N4C3=O)cc2c1 (single isomer, unassigned) [Compound 326]
- IC50 ([1]; PBMC, read-out: STAT3): > 3000 nM
- IC50 ([2]; STAT6, PBMC): < 100 nM

Compound: CCCOC(=O)[C@H](C)NP(=O)(Oc1ccccc1)[C@@H](F)c1ccc2sc(C(=O)N[C@H]3CCCC[C@H]4CC[C@@H](C(=O)N5C[C@@H](C#N)[C@H](c6ccccc6)C5)N4C3=O)cc2c1 (single isomer, unassigned) [Compound 343]
- IC50 ([1]; PBMC, read-out: STAT3): > 3000 nM
- IC50 ([2]; STAT6, PBMC): < 100 nM

Compound: CCCOC(=O)[C@H](C)NP(=O)(Oc1ccccc1)[C@H](F)c1ccc2sc(C(=O)N[C@H]3CCC[C@H]4CC[C@@H](C(=O)N5C[C@H](c6cccnc6)[C@@H](C#N)C56CC6)N4C3=O)cc2c1 (single isomer, unassigned) [Compound 354]
- IC50 ([1]; PBMC, read-out: STAT3): > 3000 nM
- IC50 ([2]; STAT6, PBMC): < 100 nM

Compound: N#C[C@H]1CN(C(=O)[C@@H]2CC[C@@H]3CCCC[C@H](NC(=O)c4ccc5ccc(C(F)(F)P(=O)(OCCSC(=O)CC6COC6)OCCSC(=O)CC6COC6)cc5c4)C(=O)N32)C[C@@H]1c1cc[nH]c(=O)c1 (single isomer, unassigned) [Compound 408]
- IC50 ([1]; PBMC, read-out: STAT3): > 3000 nM
- IC50 ([2]; PBMC, read-out: STAT6): 100 to 1000 nM

Compound: CCCOC(=O)[C@H](C)N[P@](=O)(Oc1ccccc1)[C@@H](F)c1ccc2sc(C(=O)N[C@H]3CCC[C@H]4CC[C@@H](C(=O)N5CC(c6cnccc6N(C)C)C5)N4C3=O)cc2c1 (single isomer, unassigned) [Compound 941]
- IC50 ([1]; PBMC, read-out: STAT3): < 100 nM
- IC50 ([2]; STAT6, PBMC): 1000 to 3000 nM

Compound: CCCOC(=O)[C@H](C)NP(=O)(Oc1ccccc1)[C@H](F)c1ccc2sc(C(=O)N[C@H]3CCC[C@H]4CC[C@@H](C(=O)N5CC(c6cnccc6N(C)C)C5)N4C3=O)cc2c1 (single isomer, unassigned) [Compound 954]
- IC50 ([1]; PBMC, read-out: STAT3): < 100 nM
- IC50 ([2]; STAT6, PBMC): > 3000 nM

Compound: CC(C)CC(=O)SCCOP(=O)(Oc1cccc(C#N)c1)C(F)(F)c1ccc2sc(C(=O)N[C@H]3CCCC[C@H]4CC[C@@H](C(=O)N5C[C@H](c6ccccc6)[C@@H](C#N)C5)N4C3=O)cc2c1 (single isomer, unassigned) [Compound 1007]
- IC50 ([1]; STAT3, PBMC): > 3000 nM
- IC50 ([2]; STAT6, PBMC): 100 to 1000 nM

Compound: COCC(=O)SCCOP(=O)(OCCSC(=O)COC)C(F)(F)c1ccc2sc(C(=O)N[C@H]3CCCC[C@H]4CC[C@@H](C(=O)N5C[C@@H](C#N)[C@H](c6cc[nH]c(=O)c6)C5)N4C3=O)cc2c1 (single isomer, unassigned) [Compound 1010]
- IC50 ([1]; PBMC, read-out: STAT3): 1000 to 3000 nM
- IC50 ([2]; PBMC, read-out: STAT6): 100 to 1000 nM

Compound: CCCOC(=O)[C@H](C)N[P@](=O)(Oc1ccccc1)[C@H](F)c1ccc2sc(C(=O)N[C@H]3CCC[C@H]4CC[C@@H](C(=O)N5CC(c6cnccc6N6CCOCC6)C5)N4C3=O)cc2c1 (single isomer, unassigned) [Compound 1045]
- IC50 ([1]; PBMC, read-out: STAT3): < 100 nM
- IC50 ([2]; STAT6, PBMC): > 3000 nM

Compound: COc1ccncc1C1CN(C(=O)[C@@H]2CC[C@@H]3CCC[C@H](NC(=O)c4cc5cc([C@@H](F)[P@](=O)(N[C@@H](C)C(=O)OCc6ccccc6)Oc6ccccc6)ccc5s4)C(=O)N32)C1 (single isomer, unassigned) [Compound 1055]
- IC50 ([1]; PBMC, read-out: STAT3): < 100 nM
- IC50 ([2]; STAT6, PBMC): > 3000 nM

Compound: COCCC(=O)SCCOP(=O)(OCCSC(=O)CCOC)C(F)(F)c1ccc2sc(C(=O)N[C@H]3CCCC[C@H]4CC[C@@H](C(=O)N5C[C@@H](C#N)[C@H](c6cc[nH]c(=O)c6)C5)N4C3=O)cc2c1 (single isomer, unassigned) [Compound 1083]
- IC50 ([1]; PBMC, read-out: STAT3): 1000 to 3000 nM
- IC50 ([2]; PBMC, read-out: STAT6): 100 to 1000 nM

Compound: CC(C)CC(=O)SCCOP(=O)(OCOC(=O)OC1CCOCC1)C(F)(F)c1ccc2sc(C(=O)N[C@H]3CCCC[C@H]4CC[C@@H](C(=O)N5C[C@H](c6cc[nH]c(=O)c6)[C@@H](C#N)C5)N4C3=O)cc2c1 (single isomer, unassigned) [Compound 1085]
- IC50 ([1]; PBMC, read-out: STAT3): 100 to 1000 nM
- IC50 ([2]; PBMC, read-out: STAT6): < 100 nM

Compound: CC(C)OC(=O)OCOP(=O)(OCOC(=O)OC(C)C)C(F)(F)c1ccc2ccc(C(=O)N[C@H]3CCCC[C@H]4CC[C@@H](C(=O)N5C[C@H](c6cc[nH]c(=O)c6)[C@@H](C#N)C5)N4C3=O)cc2c1 (single isomer, unassigned) [Compound 1087]
- IC50 ([1]; PBMC, read-out: STAT3): 100 to 1000 nM
- IC50 ([2]; PBMC, read-out: STAT6): < 100 nM

Compound: CC(C)OC(=O)OCOP(=O)(OCOC(=O)OC(C)C)C(F)(F)c1ccc2ccc(C(=O)N[C@H]3CCCC[C@H]4CC[C@@H](C(=O)N5C[C@@H](C#N)[C@H](c6cc[nH]c(=O)c6)C5)N4C3=O)cc2c1 (single isomer, unassigned) [Compound 1088]
- IC50 ([1]; PBMC, read-out: STAT3): 1000 to 3000 nM
- IC50 ([2]; PBMC, read-out: STAT6): < 100 nM

Compound: CC(C)CC(=O)SCCOP(=O)(OCCSC(=O)CC(C)C)[C@@H](F)c1ccc2sc(C(=O)N[C@H]3CCCC[C@H]4CC[C@@H](C(=O)N5C[C@@H](C#N)[C@H](c6cc[nH]c(=O)c6)C5)N4C3=O)cc2c1 (single isomer, unassigned) [Compound 1090]
- IC50 ([1]; PBMC, read-out: STAT3): 1000 to 3000 nM
- IC50 ([2]; PBMC, read-out: STAT6): 100 to 1000 nM

Compound: CC(C)(CO)C(=O)SCCOP(=O)(Oc1ccccc1)C(F)(F)c1ccc2sc(C(=O)N[C@H]3CCCC[C@H]4CC[C@@H](C(=O)N5C[C@@H](C#N)[C@H](c6cc[nH]c(=O)c6)C5)N4C3=O)cc2c1 (single isomer, unassigned) [Compound 1091]
- IC50 ([1]; PBMC, read-out: STAT3): > 3000 nM
- IC50 ([2]; STAT6, PBMC): > 3000 nM

Compound: CC(C)CC(=O)SCCOP(=O)(OCOC(=O)OC1COC1)C(F)(F)c1ccc2sc(C(=O)N[C@H]3CCCC[C@H]4CC[C@@H](C(=O)N5C[C@H](c6cc[nH]c(=O)c6)[C@@H](C#N)C5)N4C3=O)cc2c1 (single isomer, unassigned) [Compound 1093]
- IC50 ([1]; PBMC, read-out: STAT3): > 3000 nM
- IC50 ([2]; PBMC, read-out: STAT6): 100 to 1000 nM

Compound: CC(C)CC(=O)SCCOP(=O)(OCOC(=O)O[C@@H]1CCOC1)C(F)(F)c1ccc2sc(C(=O)N[C@H]3CCCC[C@H]4CC[C@@H](C(=O)N5C[C@H](c6cc[nH]c(=O)c6)[C@@H](C#N)C5)N4C3=O)cc2c1 (single isomer, unassigned) [Compound 1094]
- IC50 ([1]; PBMC, read-out: STAT3): 1000 to 3000 nM
- IC50 ([2]; PBMC, read-out: STAT6): 100 to 1000 nM

Compound: CC(C)CC(=O)SCCOP(=O)(OCOC(=O)O[C@H]1CCOC1)C(F)(F)c1ccc2sc(C(=O)N[C@H]3CCCC[C@H]4CC[C@@H](C(=O)N5C[C@H](c6cc[nH]c(=O)c6)[C@@H](C#N)C5)N4C3=O)cc2c1 (single isomer, unassigned) [Compound 1097]
- IC50 ([1]; PBMC, read-out: STAT3): 1000 to 3000 nM
- IC50 ([2]; PBMC, read-out: STAT6): 100 to 1000 nM

Compound: CC(C)CC(=O)SCCOP(=O)(OCOC(=O)OC(C)C)C(F)(F)c1ccc2ccc(C(=O)N[C@H]3CCCC[C@H]4CC[C@@H](C(=O)N5C[C@H](c6cc[nH]c(=O)c6)[C@@H](C#N)C5)N4C3=O)cc2c1 (single isomer, unassigned) [Compound 1100]
- IC50 ([1]; PBMC, read-out: STAT3): 100 to 1000 nM
- IC50 ([2]; PBMC, read-out: STAT6): < 100 nM

Compound: CCCOC(=O)[C@H](C)NP(=O)(Oc1ccccc1)C(F)c1ccc2sc(C(=O)N[C@H]3CCCC[C@H]4CC[C@@H](C(=O)N5C[C@@H](c6cccnc6)CC56CC6)N4C3=O)cc2c1 (stereo in doubt) [Compound 457, propyl (((R)-fluoro(2-(((3S,6S,10aS)-5-oxo-3-((R)-6-(pyridin-3-yl)-4-azaspiro[2.4]heptane-4-carbonyl)decahydropyrrolo[1,2-a]azocin-6-yl)carbamoyl)benzo [b]thiophen-5-yl)methyl)(phenoxy)phosphoryl)-L-alaninate]
- IC50 ([1]; PBMC, read-out: STAT3): > 3000 nM
- IC50 ([2]; STAT6, PBMC): < 100 nM
